Assay results: US11760758B2 (The Trustees of Columbia University in the City of New York, priority 2018, dated 2023)
Read-outs that look alike come from different tables or passages of the source.

How the values were obtained:
human MOR [1] = molecular target: T1, human MOR (Homo sapiens, UniProt P35372); test: BRET functional assay for G protein activation at hMOR; type: cell-based; details: for Agonist activity at hMOR (in words): compared to DAMGO
T1 construct: host or cells: HEK-293T

mouse MOR [2] = molecular target: T2, mouse MOR (Mus musculus, UniProt P42866); test: cAMP sensor CAMYEL functional assay at mMOR; type: cell-based; parameters: host or cells: HEK-293T; details: for Agonist activity at mMOR (in words): mMOR CAMYEL assay
mouse MOR [3] = molecular target: T2, mouse MOR; test: Radioligand competition binding ([125I]BNtxA), CHO membranes, MOR; details: for Ki: mean +/- SE, n = 3, CHO transfected with mouse opioid receptors
mouse KOR = molecular target: T3, mouse KOR (Mus musculus, UniProt P33534); test: Radioligand competition binding ([125I]BNtxA), CHO membranes, KOR; details: for Ki: mean +/- SE, n = 3, CHO transfected with mouse opioid receptors
T3 construct: expressed in transfected cells; membranes

mouse DOR = molecular target: T4, mouse DOR (Mus musculus, UniProt P32300); test: Radioligand competition binding ([125I]BNtxA), CHO membranes, DOR; details: for Ki: mean +/- SE, n = 3, CHO transfected with mouse opioid receptors
T4 construct: expressed in transfected cells; membranes

human MOR [4] = molecular target: T1, human MOR; details: Kruegel, et al. 2016; cited from earlier work
[5] = Table 1, mitragynine series, hMOR G protein BRET, normalized to DAMGO Emax = 100%
[6] = Table 3, 7-OH series, hMOR G protein BRET, normalized to DAMGO Emax = 100%
[7] = EC50 (nM), Table 1, mitragynine series, hMOR G protein BRET, 95% confidence limits in brackets
[8] = Table 2, MG-EG series, hMOR G protein BRET, normalized to DAMGO Emax = 100%

## CC[C@@H]1CN2CCc3c([nH]c4cc(Br)cc(OC)c34)[C@@H]2C[C@@H]1/C(=C\OC)C(=O)OC [Compound 15, 11-bromo-MG]
Human MOR [1]; [5]
  Emax: < 20%
Human MOR [1]; hMOR G protein BRET
  Agonist activity at hMOR (in words): no/negligible agonist activity

## CC[C@@H]1CN2CC[C@@]3(O)C(=Nc4cc(F)cc(OC)c43)[C@@H]2C[C@@H]1/C(=C\OC)C(=O)OC [Compound 24, 11-Fluoro-7-hydroxymitragynine]
Mouse MOR [2]
  Emax: 63.8%
Mouse MOR [2]; Table 5, 7-OH series, mMOR CAMYEL cAMP assay, 95% confidence limits in brackets, read-out: EC50
  EC50: 15.1 nM
Mouse MOR [3]
  Ki: 13.7 ± 1.01 nM
Mouse MOR [3]; ratio of affinity vs 7-OH (23)
  Gain in affinity at mMOR relative to parent 7-OH, 23: approximately 2 fold
Human MOR [1]; EC50 (nM), Table 3, 7-OH series, hMOR G protein BRET, 95% confidence limits in brackets
  EC50: 3.98 nM
Human MOR [1]; [6]
  Emax: 47%
Mouse KOR
  Ki: 21 ± 3.26 nM
Mouse KOR; ratio of affinity vs 7-OH (23)
  Affinity at KOR relative to parent compound 23: six times greater
Mouse DOR
  Ki: 35.8 ± 2.01 nM
Mouse DOR; ratio of affinity vs 7-OH (23)
  Affinity for DOR relative to 7-OH, 23: > 2 fold

## CC[C@@H]1CN2CCc3c([nH]c4cc(Cl)cc(OC)c34)[C@@H]2CC1/C(=C\OC)C(=O)OC (stereo partly shown) [Compound 14, 11-Chloromitragynine]
Human MOR [1]; [7]
  EC50: 327 nM
Human MOR [1]; [5]
  Emax: 33.4%

## CC[C@@H]1CN2CC[C@@]3(O)C(=Nc4cccc(OC)c43)[C@@H]2C[C@@H]1/C(=C\OC)C(=O)OC [Compound 23, 7-hydroxymitragynine, reference compound]
Mouse MOR [2]
  EC50: 13 nM
  Emax: 92.4%
Mouse MOR [3]
  Ki: 21.4 ± 0.81 nM
Human MOR [1]; [6]
  Emax: 88%
Mouse KOR
  Ki: 119 ± 2.14 nM
Mouse DOR
  Ki: 88.5 ± 9.86 nM

## CC[C@@H]1CN2CC[C@@]34OCCO[C@@]3(Nc3cc(Cl)cc(OC)c34)[C@@H]2C[C@@H]1/C(=C\OC)C(=O)OC [Compound 3, C11-Chloromitragynine-ethylene glycol adduct]
Human MOR [1]; [8]
  Emax: < 20%
Human MOR [1]; hMOR G protein BRET
  Agonist activity at hMOR (in words): negligible agonist activity

## CC[C@@H]1CN2CC[C@@]3(O)C(=Nc4cc(Cl)cc(OC)c43)[C@@H]2C[C@@H]1/C(=C\OC)C(=O)OC [Compound 25, 11-chloro-7-OH]
Mouse MOR [2]
  Emax: < 20%
  Agonist activity at mMOR (in words): not agonists
Mouse MOR [3]
  Ki: 27.1 ± 1.12 nM
Human MOR [1]; [6]
  Emax: < 20%
Human MOR [1]; hMOR G protein BRET
  Agonist activity at hMOR (in words): agonist activity was abolished
Mouse KOR
  Ki: 30.6 ± 11.3 nM
Mouse DOR
  Ki: 47.2 ± 2.36 nM

## CC[C@@H]1CN2CC[C@@]34OCCO[C@@]3(Nc3cccc(OC)c34)[C@@H]2C[C@@H]1/C(=C\OC)C(=O)OC [Compound 1, mitragynine-ethylene glycol adduct, reference compound]
Human MOR [1]; EC50 (nM), Table 2, MG-EG series, hMOR G protein BRET, 95% confidence limits in brackets
  EC50: 14.8 nM
Human MOR [1]; [8]
  Emax: 56.2%
Human MOR [1]; hMOR G protein BRET
  Agonist activity at hMOR (in words): partial agonist

## CC[C@@H]1CN2CC[C@@]3(O)C(=Nc4cc(Br)cc(OC)c43)[C@@H]2C[C@@H]1/C(=C\OC)C(=O)OC [Compound 26, 11-bromo-7-OH]
Mouse MOR [2]
  Emax: < 20%
  Agonist activity at mMOR (in words): not agonists
Mouse MOR [3]
  Ki: 32.4 ± 1.42 nM
Human MOR [1]; [6]
  Emax: < 20%
Human MOR [1]; hMOR G protein BRET
  Agonist activity at hMOR (in words): agonist activity was abolished
Mouse KOR
  Ki: 81.1 ± 7.11 nM
Mouse DOR
  Ki: 57.7 ± 6.66 nM

## CC[C@@H]1CN2CCc3c([nH]c4cccc(OC)c34)[C@@H]2C[C@@H]1/C(=C\OC)C(=O)OC [Compound 12, mitragynine, reference compound]
Human MOR [1]; [5]
  Emax: 26.5%
Human MOR [4]
  Agonist activity at hMOR (in words), previously shown: partial agonist

## CC[C@@H]1CN2CC[C@@]34OCCO[C@@]3(Nc3cc(F)cc(OC)c34)[C@@H]2C[C@@H]1/C(=C\OC)C(=O)OC [Compound 2, 11-Fluoromitragynine-ethylene glycol adduct]
Human MOR [1]; [8]
  Emax: < 20%
Human MOR [1]; hMOR G protein BRET
  Agonist activity at hMOR (in words): negligible agonist activity

## CC[C@@H]1CN2CC[C@@]34OCCO[C@@]3(Nc3cc(O)cc(OC)c34)[C@@H]2C[C@@H]1/C(=C\OC)C(=O)OC [Compound 6, 11-hydroxy-MG-EG]
Human MOR [1]
  EC50: 11.3 nM
  Emax: 67.4%

## CC[C@@H]1CN2CCc3c([nH]c4cc(F)cc(OC)c34)[C@@H]2C[C@@H]1/C(=C\OC)C(=O)OC [Compound 13, 11-fluoro-MG]
Human MOR [1]; [7]
  EC50: 81.5 nM
Human MOR [1]; [5]
  Emax: 49%

## CC[C@@H]1CN2CC[C@@]34OCCO[C@@]3(Nc3cc(Br)cc(OC)c34)[C@@H]2C[C@@H]1/C(=C\OC)C(=O)OC [Compound 4, 11-bromo-MG-EG]
Human MOR [1]; [8]
  Emax: < 20%
Human MOR [1]; hMOR G protein BRET
  Agonist activity at hMOR (in words): negligible agonist activity
